IC50 data for 28 compounds are collected here from patent publication US10214492B2, “Heterocyclic inhibitors of MCT4” (Vettore, LLC, priority 2016, dated 2019).

One assay has as its target MCT4 (Homo sapiens (Human), UniProt O15427). Nature of the assay: Assay 3: MCT4-mediated lactate transport in MDA-MB-231 breast cancer cells. Type of assay: cell-based. As to conditions: MDA-MB-231 cells; lactate transport. How it is done: (§1) 10 μL of a 30 mM DMSO stock of BCECF-AM ester (Life Technologies) is added and the cells are incubated at 37° C. for 5 min. The cells are pelleted (300 g, 5 min), washed once with 1 mL Tyrode's Solution, pH 7.4, re-pelleted (300 g, 5 min), and resuspended in 1 mL Tyrode's Solution, pH 7.4.
MCT4 activity may be assessed by monitoring the intracellular pH change that accompanies lactate/proton symport, using the pH-sensitive fluorescent dye 2′,7′-bis-(carboxyethyl)-5(6)-carboxyfluorescein (BCECF), in a manner similar to that previously reported for MCT1 and MCT4. The following is an exemplary procedure for assaying MCT4 activity of the compounds of Formula (I).

Another assay deals with MCT1 (Homo sapiens (Human), UniProt P53985). Nature of the assay: Assay 4: MCT1-mediated lactate transport in BT20 breast cancer cells. As to conditions: Table 27. Type of assay: cell-based. How it is done:
as §1
Assay 4: MCT1-Mediated Lactate Transport in BT20 Breast Cancer Cells.
Preparation of BCECF loaded cells are as described for Assay 1. Lactate transport assay is as described for Assay 1, except 10 mM L-lactate (rather than 50 mM) is added.

MCT1, sequence (P53985 whole entry): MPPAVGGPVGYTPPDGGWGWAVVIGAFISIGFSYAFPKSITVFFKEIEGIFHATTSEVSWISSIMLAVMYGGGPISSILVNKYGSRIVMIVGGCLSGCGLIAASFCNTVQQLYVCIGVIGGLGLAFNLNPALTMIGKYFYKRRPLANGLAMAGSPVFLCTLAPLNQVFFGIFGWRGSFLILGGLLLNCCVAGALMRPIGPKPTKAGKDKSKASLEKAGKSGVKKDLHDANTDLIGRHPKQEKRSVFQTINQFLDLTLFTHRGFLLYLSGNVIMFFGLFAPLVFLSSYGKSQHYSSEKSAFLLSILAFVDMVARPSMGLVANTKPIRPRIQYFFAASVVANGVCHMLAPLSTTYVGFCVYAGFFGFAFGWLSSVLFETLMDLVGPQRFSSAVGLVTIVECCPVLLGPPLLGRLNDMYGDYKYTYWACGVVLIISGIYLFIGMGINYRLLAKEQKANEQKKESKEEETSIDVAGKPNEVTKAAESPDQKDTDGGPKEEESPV
MCT1, sequence (P35613 140-385 partner): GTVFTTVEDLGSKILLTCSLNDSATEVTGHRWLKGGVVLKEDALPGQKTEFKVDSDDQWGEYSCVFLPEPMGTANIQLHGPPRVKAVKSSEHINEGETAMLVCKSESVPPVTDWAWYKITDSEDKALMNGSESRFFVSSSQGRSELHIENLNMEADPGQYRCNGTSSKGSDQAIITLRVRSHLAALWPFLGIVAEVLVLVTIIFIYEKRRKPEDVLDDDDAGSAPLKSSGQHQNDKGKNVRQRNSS
MCT4, sequence (O15427 whole entry, looked up): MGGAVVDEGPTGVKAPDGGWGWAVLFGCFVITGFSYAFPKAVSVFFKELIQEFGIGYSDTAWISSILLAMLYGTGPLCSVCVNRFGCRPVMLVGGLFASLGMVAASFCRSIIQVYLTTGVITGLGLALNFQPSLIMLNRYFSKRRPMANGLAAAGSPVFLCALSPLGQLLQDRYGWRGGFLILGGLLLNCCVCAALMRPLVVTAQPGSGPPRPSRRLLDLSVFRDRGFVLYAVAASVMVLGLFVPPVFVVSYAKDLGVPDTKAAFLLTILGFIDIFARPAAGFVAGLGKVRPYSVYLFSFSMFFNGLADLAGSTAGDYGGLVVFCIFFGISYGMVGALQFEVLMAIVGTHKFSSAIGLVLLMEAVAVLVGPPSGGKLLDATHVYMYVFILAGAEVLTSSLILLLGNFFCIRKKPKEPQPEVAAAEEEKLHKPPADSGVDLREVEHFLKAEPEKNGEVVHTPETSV
MCT4, sequence (P35613 whole entry partner, looked up): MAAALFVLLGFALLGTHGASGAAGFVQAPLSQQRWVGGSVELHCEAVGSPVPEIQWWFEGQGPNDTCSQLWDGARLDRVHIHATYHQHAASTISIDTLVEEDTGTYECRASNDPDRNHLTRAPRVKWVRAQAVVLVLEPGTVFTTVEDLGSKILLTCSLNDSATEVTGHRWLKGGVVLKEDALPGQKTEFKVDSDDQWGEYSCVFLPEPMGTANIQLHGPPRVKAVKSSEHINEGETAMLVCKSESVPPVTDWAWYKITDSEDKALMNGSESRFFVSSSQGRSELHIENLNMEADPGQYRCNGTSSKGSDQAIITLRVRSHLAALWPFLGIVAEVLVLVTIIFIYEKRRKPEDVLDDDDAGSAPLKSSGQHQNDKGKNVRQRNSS

The term IC50 denotes the point on the concentration scale where inhibition reaches its midpoint. A high value points to lower potency. Take `CC(C)(OCc1cc(-c2ccc(OC3CC3)s2)n(Cc2ccccc2Cl)n1)C(=O)O` [Example 131, 2-([1-[(2-Chlorophenyl)methyl]-5-(5-cyclopropoxythien-2-yl)-1H-pyrazol-3-yl]methoxy)-2-methylpropanoic acid]: the IC50 against MCT4 is 225 nM; on MCT1, 650 nM.

As to `COc1cccc(OC)c1Cn1nc(COC(C)(C)C(=O)O)cc1-c1cccc(OCC(C)C)c1` [Example 135, 2-([1-[(2,6-Dimethoxyphenyl)methyl]-5-[3-(2-methylpropoxy)phenyl] 1H-pyrazol-3-yl]methoxy)-2-methylpropanoic acid], the IC50 came to 53 nM against MCT4 and 220 nM at MCT1.

For `COc1cccc(-c2cc(COC(C)(C)C(=O)O)nn2CC(C)C)c1` [Example 137, 2-([5-(3-Methoxyphenyl)-1-(2-methylpropyl)-1H-pyrazol-3-yl]methoxy)-2-methylpropanoic acid], the IC50 on MCT4 was 1400 nM; on MCT1, greater than 100000 nM.

In the case of `COc1cccc(-c2cc(COC(C)(C)C(=O)O)nn2CC2CCOCC2)c1` [Example 138, 2-([5-(3-Methoxyphenyl)-1-([oxan-4-yl]-methyl)-1H-pyrazol-3-yl]methoxy)-2-methylpropanoic acid], the IC50 was 535 nM against MCT4 and greater than 100000 nM at MCT1.

For the compound `COc1cccc(-c2cc(COC(C)(C)C(=O)O)nn2Cc2ncccc2Cl)c1` [Example 139, 2-([1-[(3-Chloropyridin-2-yl)methyl]-5-(3-methoxyphenyl)-1H-pyrazol-3-yl)methoxy)-2-methylpropanoic acid], the IC50 was 9700 nM against MCT4 and greater than 100000 nM on MCT1.

On to `CCOc1ccccc1Cn1nc(COC(C)(C)C(=O)O)cc1-c1cccc(OC)c1` [Example 141, 2-([1-[(2-Ethoxyphenyl)methyl]-5-(3-methoxyphenyl)-1H-pyrazol-3-yl]methoxy)-2-methylpropanoic acid], for which the IC50 amounted to 6.7 nM against MCT4 and 33000 nM against MCT1.

For the compound `COc1cccc(-c2cc(COC(C)(C)C(=O)O)nn2Cc2ccccc2OC2CC2)c1` [Example 142, 2-([1-[(2-Cyclopropoxyphenyl)methyl]-5-(3-methoxyphenyl)-1H-pyrazol-3-yl]methoxy)-2-methylpropanoic acid], the IC50 is 6.3 nM at MCT4 and 26000 nM on MCT1.

For `COc1cccc(-c2cc(/C=C/C(C)(C)C(=O)O)nn2Cc2ccccc2Cl)c1` [Example 143, (3E)-4-[1-[(2-Chlorophenyl)methyl]-5-(3-methoxyphenyl)-1H-pyrazol-3-yl]-2,2-dimethylbut-3-enoic Acid], the IC50 on MCT4 turned out to be 195 nM; on MCT1 it was 3300 nM.

Turning to `COc1cccc(-c2cc(CCC(C)(C)C(=O)O)nn2Cc2ccccc2Cl)c1` [Example 144, 4-[1-[(2-chlorophenyl)methyl]-5-(3-methoxyphenyl)-1H-pyrazol-3-yl]-2,2-dimethylbutanoic Acid], the IC50 at MCT4 came to 127 nM; against MCT1, 2400 nM.

Consider `CCn1ncc2ccc(-c3cc(COC(C)(C)C(=O)O)nn3Cc3ccccc3Cl)cc21` [Example 151, Sodium 2-([1-[(2-chlorophenyl)methyl]-5-(1-ethyl-1H-indazol-6-yl)-1H-pyrazol-3-yl]methoxy)-2-methylpropanoate], for which the IC50 against MCT4 amounted to 3.6 nM; against MCT1, 70000 nM.

Regarding `CC(C)(OCc1cc(-c2cccc(OC3CC3)c2)n(-c2cccc3cn[nH]c23)n1)C(=O)O` [Example 152, 2-([5-(3-Cyclopropoxyphenyl)-1-(1H-indazol-7-yl)-1H-pyrazol-3-yl]methoxy)-2-methylpropanoic Acid], the IC50 on MCT4 is 80 nM; against MCT1 it was greater than 100000 nM.

As for `CC(C)(OCc1cc(-c2cccc(OC3CC3)c2)n(-c2cccc3[nH]ncc23)n1)C(=O)O` [Example 153, 2-([5-(3-Cyclopropoxyphenyl)-1-(1H-indazol-4-yl)-1H-pyrazol-3-yl]methoxy)-2-methylpropanoic Acid], the IC50 at MCT4 stood at 830 nM; at MCT1, 44000 nM.

Take `Cc1n[nH]c2cccc(-n3nc(COC(C)(C)C(=O)O)cc3-c3cccc(OC4CC4)c3)c12` [Example 154, 2-([5-(3-cyclopropoxyphenyl)-1-(3-methyl-1H-indazol-4-yl)-1H-pyrazol-3-yl]methoxy)-2-methylpropanoic Acid]: the values for the IC50 on MCT4 and against MCT1 were 240 nM and greater than 100000 nM, respectively.

Turning to `CC(C)(OCc1cc(-c2ccccn2)n(-c2ccccc2Cl)n1)C(=O)O` [Example 156, 2-([1-(2-Chlorophenyl)-5-(pyridin-2-yl)-1H-pyrazol-3-yl]methoxy)-2-methylpropanoic acid], the IC50 was 1400 nM on MCT4 and greater than 100000 nM at MCT1.

Take `CC(C)(OCc1cc(-c2cccc(OCC3COC3)c2)n(-c2ccccc2F)n1)C(=O)O` [Example 158, 2-([1-(2-Fluorophenyl)-5-[3-(oxetan-3-yl-methoxy)phenyl]-1H-pyrazol-3-yl]-methoxy)-2-methylpropanoic acid]: the IC50 at MCT4 is 580 nM; at MCT1 it was greater than 100000 nM.

Regarding `CC(C)(OCc1cc(-c2cccc(OC3CCC3)c2)n(-c2ccccc2F)n1)C(=O)O` [Example 159, 2-([5-(3-Cyclobutoxyphenyl)-1-(2-fluoro-phenyl)-1H-pyrazol-3-yl]methoxy)-2-methylpropanoic acid], the IC50 is 11 nM at MCT4 and greater than 100000 nM against MCT1.

For `CC(C)(OCc1cc(-c2cccc(OC3COC3)c2)n(-c2ccccc2F)n1)C(=O)O` [Example 160, 2-([1-(2-Fluorophenyl)-5-[3-(oxetan-3-yl-oxy)phenyl]-1H-pyrazol-3-yl]methoxy)-2-methylpropanoic acid], the IC50 is 270 nM against MCT4 and greater than 100000 nM against MCT1.

For the compound `CCOc1cc(OCC)cc(-c2cc(COC(C)(C)C(=O)O)nn2-c2ccccc2C)c1` [Example 162, 2-([5-(3,5-Diethoxyphenyl)-1-(2-methyl-phenyl)-1H-pyrazol-3-yl]methoxy)-2-methylpropanoic acid], the IC50 is 6.4 nM against MCT4 and 34000 nM against MCT1.

For the compound `CCn1ncc2ccc(-c3cc(COC(C)(C)C(=O)O)nn3-c3ccccc3N(C)C)cc21` [Example 163, 2-([1-[2-(dimethylamino)phenyl]-5-(1-ethyl-1H-indazol-6-yl)-1Hpyrazol-3-yl]-methoxy)-2-methylpropanoic acid], the IC50 was 4.4 nM on MCT4 and 73000 nM on MCT1.

Take `CCOc1ccccc1-n1nc(COC(C)(C)C(=O)O)cc1-c1cc(OC)cc(OC)c1` [Example 164, 2-([5-(3,5-Dimethoxyphenyl)-1-(2-ethoxy-phenyl)-1H-pyrazol-3-yl]methoxy)-2-methylpropanoic acid]: the values for the IC50 against MCT4 and against MCT1 were 43 nM and greater than 100000 nM, respectively.

Take `CCn1ncc2ccc(-c3cc(COC(C)(C)C(=O)O)nn3-c3cccc4cnn(C)c34)cc21` [Example 165, 2-([5-(1-Ethyl-1H-indazol-6-yl)-1-(1-methyl-1H-indazol-7-yl)-1H-pyrazol-3-yl]-methoxy)-2-methylpropanoic acid]: the results for the IC50 at MCT4 and on MCT1 were 85 nM and 99000 nM, respectively.

On to `Cn1ncc2cccc(-n3nc(COC(C)(C)C(=O)O)cc3-c3cccc(OCC4CC4)c3)c21` [Example 169, 2-([5-[3-(Cyclopropylmethoxy)phenyl]-1-(1-methyl-1H-indazol-7-yl)-1H-pyrazol-3-yl]-methoxy)-2-methylpropanoic acid], for which the IC50 on MCT4 was 12.2 nM; against MCT1 it was 68000 nM.

As to `CCOc1cc(OCC)cc(-c2cc(COC(C)(C)C(=O)O)nn2-c2cccc3cnn(C)c23)c1` [Example 171, 2-([5-(3,5-Diethoxyphenyl)-1-(1-methyl-1H-indazol-7-yl)-1H-pyiazol-3-yl]methoxy)-2-methylpropanoic acid], the values for the IC50 on MCT4 and on MCT1 were 12 nM and 32000 nM, respectively.

With `CCn1ncc2cccc(-n3nc(COC(C)(C)C(=O)O)cc3-c3cccc(OCC(C)(C)C)c3)c21` [Example 172, 2-([5-(3-(2,2-Dimethylpropoxy)phenyl]-1-(1-ethyl-1H-indazol-7-yl)-1H-pyrazol-3-yl]-methoxy)-2-methylpropanoic acid], the IC50 against MCT4 stood at 0.59 nM; on MCT1 it was 33000 nM.

In the case of `CC(C)(OCc1cc(-c2cccc(OCC3COC3)c2)n(-c2ccccc2Cl)n1)C(=O)O` [Example 173, 2-([1-(2-Chlorophenyl)-5-[3-(oxetan-3-yl-methoxy)phenyl)-1H-pyraz.ol-3-yl]-methoxy)-2-methylpropanoic acid], the IC50 against MCT4 stood at 230 nM; against MCT1 it was 66000 nM.

In the case of `Cn1ncc2ccc(-c3cc(COC(C)(C)C(=O)O)nn3-c3ccccc3Cl)cc21` [Example 174, 2-([1-(2-Chlorophenyl)-5-(1-methyl-1H-indazol-6-yl)-1H-pyrazol-3-yl]methoxy)-2-methylpropanoic acid], the IC50 is 101 nM on MCT4 and greater than 100000 nM on MCT1.

Regarding `CC(C)(OCc1cc(-c2cccc(OC3COC3)c2)n(-c2ccccc2Cl)n1)C(=O)O` [Example 176, 2-([1-(2-Chlorophenyl)-5-[3-(oxetan-3-yl-oxy)phenyl]-1Hpyrazol-3-yl]methoxy)-2-methylpropanoic acid], the results for the IC50 on MCT4 and at MCT1 were 180 nM and greater than 100000 nM, respectively.

For the compound `CC(C)(OCc1cc(-c2cccc(OC3CC3)c2)n(-c2ccccc2F)n1)C(=O)O` [Example 181, 2-([5-(3-cyclopropoxyphenyl)-1-(2-fluorophenyl)-1H-pyrazol-3-yl]methoxy)-2-methylpropanoate], the IC50 on MCT4 was 20 nM; against MCT1, 25000 nM.
